Assay type in all cases: cell-based
In test [1] the test system is MDA-MB-231 triple negative breast cancer cells. The experiment in a line: Antiproliferative SRB assay, MDA-MB-231. The following applies: SRB assay; for IC50: Homo sapiens, MDA-MB-231, 72 h, mean ± SEM. Here is the method:
FIG. 1. […] Cell death measured by SRB assay after 72 hour of compound exposure (n≥3 biological replicates, error bars show SEM). IC50 values given as mean±SEM from ≥3 biological replicates.
To investigate the feasibility of developing a class of antitumor antibiotics based upon the DNM scaffold, the ability of the DNM to exert an antiproliferative effect against MDA-MB-231 breast cancer cells was evaluated.

In the next test the test system is E. coli. The experiment in a line: Antibacterial MIC, microbroth dilution, E. coli. The following applies: Escherichia coli. Here is the method: (§1) To investigate this possibility, the antibacterial effects of the DNM derivatives was assessed against strains of E. coli, S. aureus, and MRSA using the microbroth dilution method (Table 2).
The test system of another test is S. aureus. The experiment in a line: Antibacterial MIC, microbroth dilution, S. aureus. The following applies: Staphylococcus aureus. How it is done:
as §1

A further test has as its system BT-474. The experiment in a line: Antiproliferative SRB assay, BT-474. From the text: (§2) Topoisomerase inhibitors such as DOX are used as single agent and in combination therapy to treat a wide-range of cancer types.
The next test deals with HCT-116. The experiment in a line: Antiproliferative SRB assay, HCT-116. The following applies: Homo sapiens, HCT-116, 72 h, Colon cancer, mean ± SEM.
Text: as §2

The test system of a further test is HeLa. As to the kind of experiment: Antiproliferative SRB assay, HeLa. The note with it: Homo sapiens, 72 h, Ovarian cancer (footnote e), mean ± SEM.
Text: as §2

In another test the test system is ES-2. The experiment in a line: Antiproliferative SRB assay, ES-2. The following applies: Homo sapiens, ES-2, 72 h, Cervical cancer (footnote f), mean ± SEM.
Text: as §2

Another test concerns IMR32. As to the kind of experiment: Antiproliferative SRB assay, IMR32. The following applies: Homo sapiens, IMR-32, 72 h, Neuroblastoma, mean ± SEM.
Text: as §2

The next test concerns H460. The experiment in a line: Antiproliferative SRB assay, H460. The note with it: Homo sapiens, NCI-H460, 72 h, Lung cancer, mean ± SEM.
Text: as §2

The next test has as its system HOS. As to the kind of experiment: Antiproliferative SRB assay, HOS. The note with it: Homo sapiens, 72 h, Osteosarcoma, mean ± SEM.
Text: as §2

A further test has as its system Jurkat. The experiment in a line: Cell viability Alamar Blue assay, Jurkat. The following applies: Homo sapiens, 72 h, Leukemia, mean ± SEM.
Text: as §2

The test system of a further test is HL-60. As to the kind of experiment: Cell viability Alamar Blue assay, HL-60. The note with it: Homo sapiens, HL-60, 72 h, Leukemia, mean ± SEM.
Text: as §2

A further test relates to panel of cancer cells. As to the kind of experiment: Average over panel of 10 cancer cell lines. The following applies: 72 hour, read-out: Average (mean) IC50 over the cell line panel.
Text: as §2

Test [2] deals with T1, Top1 (Homo sapiens, UniProt P11387).
T1 sequence (P11387 1-765): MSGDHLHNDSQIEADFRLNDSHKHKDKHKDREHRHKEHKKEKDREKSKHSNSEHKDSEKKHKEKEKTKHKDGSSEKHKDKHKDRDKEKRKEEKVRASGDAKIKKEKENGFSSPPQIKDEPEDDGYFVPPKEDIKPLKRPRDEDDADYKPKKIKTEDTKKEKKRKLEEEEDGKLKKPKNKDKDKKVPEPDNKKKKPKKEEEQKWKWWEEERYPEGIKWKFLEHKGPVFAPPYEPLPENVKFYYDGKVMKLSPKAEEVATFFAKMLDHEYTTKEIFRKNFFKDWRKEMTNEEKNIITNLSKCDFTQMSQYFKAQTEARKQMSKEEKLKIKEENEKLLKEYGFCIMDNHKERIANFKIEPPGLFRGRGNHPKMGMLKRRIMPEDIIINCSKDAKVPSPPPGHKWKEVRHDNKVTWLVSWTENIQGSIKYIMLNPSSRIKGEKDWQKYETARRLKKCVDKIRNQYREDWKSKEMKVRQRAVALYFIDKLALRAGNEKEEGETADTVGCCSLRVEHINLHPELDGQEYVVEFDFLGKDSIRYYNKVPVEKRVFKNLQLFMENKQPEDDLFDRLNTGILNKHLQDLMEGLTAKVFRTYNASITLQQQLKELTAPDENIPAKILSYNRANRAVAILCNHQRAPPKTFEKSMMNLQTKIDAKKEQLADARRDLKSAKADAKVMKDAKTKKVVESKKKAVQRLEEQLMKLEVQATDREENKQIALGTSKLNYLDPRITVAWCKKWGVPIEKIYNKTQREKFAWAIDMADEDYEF
As to the kind of experiment: Top1 degradation by Western blot, BT-474. The note with it: 50 μM for 2, 4, and 6 hours, then 30-minute drug-free media. How it is done:
(§3) FIG. 4. Level of Top1-degradation predicts cell line sensitivity. (a) Cells treated with 25 μM of compound for indicated times followed by a 30 minute incubation with drug-free media. Cells were lysed with RIPA and Top1 levels assessed by Western Blot. (b) Degradation of Top1 results in a right-ward shift in the dose-response curve. Effect is most pronounced in Top1-poisons (Ph-6DNM-NH3, CPT) than Top1 catalytic inhibitor (6DNM-Pyr). Cell death measured by SRB assay after 72 hour of compound exposure (n≥3 biological replicates, error bars show SEM).
(§4) This difference in mechanism of action between Ph-6DNM-NH3 and 6DNM-Pyr may provide an explanation of the differences in cell line sensitivities between the different DNM derivatives. […] This downregulation serves as a resistance mechanism and the level of Top1 degradation is correlated with reduced sensitivity to CPT. To determine if a similar mechanism is responsible for the reduced sensitivity to Ph-6DNM-NH3 and its derivatives in certain cell lines, the effects of Ph-6DNM-NH3 and 6DNM-Pyr were compared to that of CPT in […] and BT-474, two cancer cell lines known to be deficient and proficient in Top1 degradation, respectively. Cells were treated with 50 μM Ph-6DNM-NH3, 6DNM-Pyr, or CPT for 2, 4, and 6 hours. Following a 30-minute incubation with drug-free media to allow for the reversal of any Top1cc formed, cells were lysed and Top1 concentrations assessed by Western blot (FIG. 4a).

For test [3], the target named is T1, Top1. The experiment in a line: Top1 degradation by Western blot, MDA-MB-231. Set-up: dose or concentration left out as unconfirmed. The following applies: 4, and 6 hours, then 30-minute drug-free media. Here is the method: as §3, §4

Converted amounts (≈) assume the structure as drawn. Like-named read-outs stand apart in the source and are kept apart here.

As for `Cc1cc(=O)n2c3c(c4c(cc13)c1ccccc1c(=O)n4C)OCC2CN1CCCCC1` (stereo not drawn) [Compound 23], the IC50 came to 79 ± 7 nM in test [1] (Breast cancer, read-out: 72 hour IC50, MDA-MB-231); 79 ± 7 nM in test [1] (72 hour compound exposure, read-out: MDA-MB-231 IC50); 1000 ± 100 nM in the test on BT-474 (Homo sapiens, BT-474, 72 h, Breast cancer, mean ± SEM); 79 ± 10 nM in the test with HCT-116; 136 ± 5 nM with HeLa; 67 ± 8 nM in the test on ES-2. In addition, the IC50 was determined as 20 ± 0.2 nM in the test on IMR32; 24 ± 2 nM with H460; 55 ± 1 nM in the test on HOS; 240 ± 40 nM in the test with Jurkat; 440 ± 130 nM in the test with HL-60; 214 nM in the test on panel of cancer cells. Further, the MIC in the test with E. coli amounted to 2 µg/mL (≈ 4.66 µM); against S. aureus, 0.5 µg/mL (≈ 1.16 µM).
As for `CC[C@@]1(O)C(=O)OCc2c1cc1n(c2=O)Cc2cc3ccccc3nc2-1` [CPT, camptothecin, reference compound], the “Antiproliferative effect against MDA-MB-231 cells” value in test [1] (FIG. 1, 72 hour) was “sensitive”. In the test on BT-474 (FIG. 4b, 72 hour), the “Effectiveness in BT-474 after Top1 degradation” value was “nearly complete resistance”. Further, the “Top1 levels by Western blot in BT-474” value on Top1 [2] is “time-dependent decrease in the levels of Top1”. The “Top1 levels by Western blot in MDA-MB-231” value at Top1 [3] is recorded as “minimal differences in Top1 relative to untreated cells”.

(Values after patent US11274106B2, “Topoisomerase inhibitors with antibacterial and anticancer activity” (THE BOARD OF TRUSTEES OF THE UNIVERSITY OF ILLINOIS, priority 2017, dated 2022).)
